# Laboratory results taken from patent EP0414895A1, “OROTATE OF $g(a)-AMINO-$g(b)-PHENYL-BUTYRIC ACID” (NAUCHNO-PROIZVODSTVENNOE OBIEDINENIE "BIOLAR", priority 1989, dated 1990).
# Structures can show the parent of a compound that is named as a salt.
# What was measured:
# [1] = test system: Mäuse; test: Habituation study: electric pain stimulation thresholds on repeated dosing; type: in vivo
# Text: In einer Kammer von 20 x 20 x 25 cm Ausmass, deren Boden - ein Metallgitter aus Stangen darstellt, wurde ein Paar Tiere untergebracht (männliche Mäuse) und es wurde der Wechselstrom durchgelassen. Die Spannung wurde dosenartig auf 5 V solange erhöht, bis der Strom das Piepsen (die Schwelle der emotionellen Reaktivität) und die Schlägerei der Tiere (die Schwelle der Aggressivität) auslöste. Jede Spannungsgrösse wurde innerhalb von 5 sec zweimal in einem Zeitabstand von 20 bis 50 Sekunden aufrechterhalten. Die Kontrolle des Benehmens der Tiere begann man I0 Minuten nach der Einführung der oben erwähnten Verbindungen. Die Angaben sind in Tabellen 3, 4 angeführt.
# Zur Untersuchung der Gewöhnung an die Wirkung der erfindungsgemässen Verbindung wurde die Dynamik der Benehmungseffekte an Mäusen beiderlei Geschlechts untersucht. In jeder Gruppe waren je I2 bis I8 Tiere. Die erfindungsgemässe Verbindung und γ -Amino- β - -phenylbuttersäurehydrochlorid wurden intraperitoneal in Dosen von 75 mg/kg bzw. 48 mg/kg zweimal am Tag eingeführt. Es wurden die Körpermasse, der Einfluss auf die motorische Aktivität (im Aktometer) und auf die emotionelle Reaktivität aud dem Wege der elektrischen Schmerzreizung untersucht. Die Tiere wurden innerhalb von 15 bis 20 Tagen untersucht. […] Der sedative Effekt der beanspruchten Verbindung war während der ganzen Versuchsperiode aufrechterhalten (Tabelle 7).
# [2] = test system: Mäuse; test: Motor and orientation activity in photoelectric actometer; type: in vivo; conditions: counted 60 min from 10 min after dosing
# Text: Zur Bestimmung der sedativen Wirksamkeit wurde die motorische und Orientierungsaktivität und die motorische Fähigkeit in Versuchen an Mäusen und Ratten untersucht.
# Den Versuchstieren wurden die beanspruchte Verbindung, γ -Amino- β -phenylbuttersäurehydrochlorid und Pyrazetam eingeführt. Als Kontrolle diente die physiologische Lösung (0,9%ige NaCl-Lösung). Die Untersuchungen wurden an I0 bis I2 erwachsenen Tieren (Mäuse, Ratten) durchgeführt.
# Bei der Bestimmung der motorischen und Orientierungsaktivität wurde jede Maus in einer Einzelkamner des photoelektrischen Aktometers untergebracht. Die motorische und Orientierungsaktivität wurde nach der Zahl der Impulse bestimmt, die beim Berühren der Aktometerkontakte durch das Tier entstanden. Das Zählen der Im pulse wurde I0 min nach der intraperitonealen Einführung der genannten Verbindungen begonnen und dauerte innerhalb von 60 min. Die Angaben sind in der Tabelle I angeführt.
# [3] = test system: Mäuse; test: Hypoxia in hermetically closed vessel, survival; type: in vivo; conditions: closed vessel 80 cm³
# Text: Nach der zweiten Methode wurden die Mäuse in einem hermetisch verschlossenen Gefäss von 80 cm³ Inhalt untergebracht, dabei wurde die Luft nicht abgesaugt, und es wurden keine CO₂-Sorptionsmittel zugegeben. Die Prüfverbindungen wurden I Stunde vor dem Beginn des Versuchs intraperitoneal eingeführt (siehe Tabelle II).
# [4] = Solubility (description of the substance); type: physicochemical
# [5] = test system: Ratten; test: Acute toxicity, rats; type: in vivo; conditions: intraperitoneal
# Description: (§1) Die akute Toxizität der beanspruchten Verbindung wurde an Mäusen und Ratten (die Gruppe aus 9 bis I2 Tieren) bei der intravenösen, intraperitonealen Einführung der beanspruchten Verbindung sowie bei deren Einführung in den Magen bestimmt.
# (§2) Es wurden der letale Ausgang, der Allgemeinzustand, die Vergiftungssymptome registriert. LD₅₀ wurde nach der Methode von Lichtfield und Wilcoxon bestimmt. LD₅₀ der neuen Verbindung beträgt für Mäuse bei der intravenösen Einführung 580 mg/kg, bei der intraperitonealen Einführung I450 mg/kg, bei der Einführung in den Magen 4600 mg/kg; für Ratten bei der intraperitonealen Einführung beträgt LD₅₀ 883 mg/kg, bei der Einführung in den Magen - über I500 mg/kg.
# [6] = test system: Mäuse; test: Strophantin toxicity (arrhythmia), time to death; type: in vivo
# Text: Unter Berücksichtigung der Tatsache, dass einige Verbindungen, die ähnlich mit der erfindungsgemässen Verbindung eine sedative Wirkung besitzen, als symptomatische Mittel zur Behandlung von verschiedenen Arrhythmienarten angewendet werden können, wurde der Einfluss der erfindungsgemässen Verbindung auf die toxischen Strophantin-Effekte geprüft, die mit der Herzrhythmusstörung verbunden sind. Dazu wurde bei weissen Mäusen (die Gruppe aus I0 Tieren) die Zeit des Todeseintritts bei der intravenösen Einführung von Strophantin (0,0I%ige wässrige Lösung) im einzelnen und in Kombination mit der neuen Verbindung und mit γ -Amino--β -phenylbuttersäurehydrochlorid bestimmt. Die Ergebnisse dieser Versuche sind in der Tabelle 25 angeführt.
# [7] = Storage stability (description of the substance); type: physicochemical
# [8] = test system: Mäuse; test: Hemic hypoxia by intraperitoneal Natriumnitrit, survival; type: in vivo; conditions: Natriumnitrit 200 mg/kg i.p. 15 min after compound
# Description: Die gemische Hypoxie wurde durch die intraperitoneale und subkutane Verabreichung von Natriumnitrit in einer Dosis von 200 mg/kg den Gruppen zu I0 […] I5 min nach der Einführung der Prüfverbindungen erzeugt. Die Angaben sind in der Tabelle I2 (bei der intraperitonealen Einführung von Natriumnitrit) und Tabelle I3 (bei der subkutanen Einführung von Natriumnitrit) angeführt.
# [9] = test system: Mäuse; test: Acute toxicity, mice; type: in vivo
# Description: as §1, §2
# [10] = test system: Mäuse; test: Ethanol intoxication, survival; type: in vivo
# Text: Es wurde auch der Einfluss der erfindungsgemässen Verbindung auf die durch Athanol erzeugte Intoxikation untersucht. In den Versuchen an Mäusen (in jedem Versuch wurde eine Gruppe von I0 Tieren untersucht) wurde die Überlebensdauer der Tiere bestimmt. […] Athanol wurde I Stunde nach der Einführung der neuen Verbindung verabreicht. Die Ergebnisse dieser Untersuchung sind in der Tabelle 2 dargestellt.
# [11] = test system: Mäuse; test: Phenamin-induced hypermotility in actometer; type: in vivo
# Description: Eis wurde die Wirkung der beanspruchten Verbindung auf den durch Phenamin ausgelöston Effekt der Veränderung der Hypermotorik untersucht. Phenamin wurde den Mäusen intraperitoneal in Dosen von 3 und 5 mg/kg I0 Minuten nach der enteralen oder intraperitonealen Einführung der beanspruchten Verbindung und des Pyrazetams eingeführt. Die Tiere wurden in der Kammer des photoelektrischen Aktometers untergebracht. Die motorische Aktivität wurde nach der Zahl der Impulse innerhalb von 60 Minuten bestimmt. Die Angaben sind in der Tabelle 6 angeführt.
# [12] = day 1, 48 mg/kg i.p. twice daily
# [13] = day 5, 48 mg/kg i.p. twice daily
# [14] = day 10, 48 mg/kg i.p. twice daily
# [15] = day 1, 75 mg/kg i.p. twice daily
# [16] = day 5, 75 mg/kg i.p. twice daily
# [17] = day 10, 75 mg/kg i.p. twice daily
# [18] = day 15, 75 mg/kg i.p. twice daily
compound,measurement,setting,value
"NCC(CC(=O)O)c1ccccc1 (stereo not drawn) [γ-Amino-β-phenylbutter-säurehydrochlorid, γ -Amino- β -phenylbuttersäurehydrochlorid, reference compound]","Spannung in V, die Schwelle der Aggressivität",[1]; [12],29±2 V
same,"Spannung in V, die Schwelle der emotionellen Reaktivität",[1]; [12],24±2 V
same,"Spannung in V, die Schwelle der Aggressivität",[1]; [13],27±4 V
same,"Spannung in V, die Schwelle der emotionellen Reaktivität",[1]; [13],23±2 V
same,"Spannung in V, die Schwelle der Aggressivität",[1]; [14],26±3 V
same,"Spannung in V, die Schwelle der emotionellen Reaktivität",[1]; [14],20±2 V
same,"Spannung in V, die Schwelle der Aggressivität","[1]; day 15, 48 mg/kg i.p. twice daily",24±2 V
same,Anzahl der Impulse im Aktometer,[2]; 16 mg/kg i.p.,368±51
same,Anzahl der Impulse im Aktometer,[2]; 32 mg/kg i.p.,238±28
same,Anzahl der Impulse im Aktometer,[2]; 40 mg/kg i.p.,158±21
γ -Amino- β -phenylbuttersäureorotat [Erfindungsgemässe Verbindung],Überlebensdauer,"[3]; 50,0 mg/kg i.p. 1 h before","10,8±1,2 min"
same,Überlebensdauer,"[3]; 100,0 mg/kg i.p. 1 h before","15,2±1,4 min"
same,Überlebensdauer,"[3]; 200,0 mg/kg i.p. 1 h before","27,6±2,6 min"
same,"Spannung in V, die Schwelle der Aggressivität",[1]; [15],30±3 V
same,"Spannung in V, die Schwelle der emotionellen Reaktivität",[1]; [15],22±2 V
same,"Spannung in V, die Schwelle der Aggressivität",[1]; [16],29±2 V
same,"Spannung in V, die Schwelle der emotionellen Reaktivität",[1]; [16],23±2 V
same,"Spannung in V, die Schwelle der Aggressivität",[1]; [17],29±2 V
same,"Spannung in V, die Schwelle der emotionellen Reaktivität",[1]; [17],24±3 V
same,"Spannung in V, die Schwelle der Aggressivität",[1]; [18],34±3 V
same,"Spannung in V, die Schwelle der emotionellen Reaktivität",[1]; [18],22±2 V
same,Anzahl der Impulse im Aktometer,[2]; 25 mg/kg i.p.,322±43
same,Anzahl der Impulse im Aktometer,[2]; 50 mg/kg i.p.,208±27
same,Anzahl der Impulse im Aktometer,[2]; 75 mg/kg i.p.,123±18
same,Löslichkeit in wässrigen Alkalilösungen,[4]; aqueous alkali solutions,löslich
same,Wasserlöslichkeit,[4]; water,schwer wasserlöslich
same,LD₅₀,[5],883 mg/kg
same,Zeit des Todeseintritts,"[6]; 50 mg/kg + Strophantin 1,7 mg/kg i.v.","22,3 (8,9 - 35,6) min"
same,Verlängerung der Zeit des Todeseintritts der Tiere,"[6]; 50 mg/kg, Strophantin","2,5 fache"
same,Beständigkeit bei der Aufbewahrung,[7],beständig
same,Überlebensdauer,"[8]; 50,0 mg/kg","33,8±1,2 min"
same,Überlebensdauer,"[8]; 100,0 mg/kg","53,1±4,1 min"
same,Überlebensdauer,"[8]; 200,0 mg/kg","46,8±2,7 min"
same,LD₅₀,[9]; into the stomach,4600 mg/kg
same,LD₅₀,[9]; intravenous,580 mg/kg
same,Überlebensdauer nach der Einführung von Äthanol,"[10]; 50 mg/kg enteral chronic, 14 days + Äthylalkohol 11 ml/kg","283,8±16 sec"
same,Überlebensdauer nach der Einführung von Äthanol,[10]; 50 mg/kg single + Äthylalkohol 11 ml/kg,"213,6±8 sec"
same,Verlängerung der Überlebensdauer der Tiere,"[10]; chronic administration, ethanol intoxication",30%
same,Anzahl der Impulse im Aktometer innerhalb von 60 min,[11]; 50 mg/kg + Phenamin 5 mg/kg i.p. 10 min later,1884±111
same,Anzahl der Impulse im Aktometer innerhalb von 60 min,[11]; 75 mg/kg + Phenamin 5 mg/kg i.p. 10 min later,1125±141
same,Anzahl der Impulse im Aktometer innerhalb von 60 min,[11]; 100 mg/kg + Phenamin 5 mg/kg i.p. 10 min later,812±62
same,Anzahl der Impulse im Aktometer innerhalb von 60 min,[11]; 150 mg/kg + Phenamin 5 mg/kg i.p. 10 min later,811±98
